Assay results: PMC5883364 (Malaria Journal, 2018)
Values joined by “and” are separate entries in the source; they are usually repeats but may differ in a detail not shown here. Equal entries are not always repeated. Where two headings read alike, the source gives them in different places.

Assays:
[1] = tested on: P. falciparum Dd2 (chloroquine-resistant, mefloquine-resistant); assay: SYBR Green I assay, IC50, strain Dd2; type: cell-based, Plasmodium falciparum; details: for Resistance Index RIa = IC50 (Dd2)/IC50 (3D7): Dd2 vs 3D7; for IC50: read-out: P. falciparum IC50 ± SD, Dd2
Procedure: (§1) Staging and parasitaemia were determined by light microscopy of Giemsa-stained thin blood smears. Anti-malarial activity was determined using the SYBR Green I assay, as previously described.

[2] = tested on: P. falciparum IPC4912 (artemisinin-resistant, K13 I543T); assay: SYBR Green I assay, IC50, strain IPC4912; type: cell-based, Plasmodium falciparum; details: for Resistance Index RIc = IC50 (IPC4912)/IC50 (3D7): IPC4912 vs 3D7; for IC50: Plasmodium falciparum, read-out: P. falciparum IC50 ± SD, IPC4912
Procedure: Staging and parasitaemia were determined by light microscopy of Giemsa-stained thin blood smears. Anti-malarial activity was determined using the SYBR Green I assay, as previously described. Briefly, early ring stage parasites (> 80% of rings) were challenged with a 1:3 serial dilution of each compound, in concentrations ranging from 10,000–0.169 nM. Fluorescence intensity was measured with a multi-mode microplate reader (Triad, Dynex Technologies), with excitation and emission wavelengths of 485 and 535 nm, respectively, and analysed by nonlinear regression using GraphPad Prism to determine IC50 values.

[3] = tested on: P. falciparum 3D7 (chloroquine and mefloquine sensitive); assay: SYBR Green I assay, IC50, strain 3D7; type: cell-based, Plasmodium falciparum; details: read-out: P. falciparum IC50 ± SD, 3D7
Procedure: as §1

[4] = tested on: P. falciparum IPC5202 (artemisinin-resistant, K13 R539T); assay: SYBR Green I assay, IC50, strain IPC5202; type: cell-based, Plasmodium falciparum; details: for Resistance Index RIb = IC50 (IPC5202)/IC50 (3D7): IPC5202 vs 3D7; for IC50: Plasmodium falciparum, read-out: P. falciparum IC50 ± SD, IPC5202, strain IPC5202
Procedure: as §1

[5] = tested on: V79 (Chinese hamster lung) cells; details: for LD50 V79: Chinese hamster, 24 h; for Selectivity index LD50 (V79)/IC50 (3D7): V79 vs 3D7; for Selectivity index LD50 (V79)/IC50 (Dd2): V79 vs Dd2; for Selectivity index LD50 (V79)/IC50 (IPC4912): V79 vs IPC4912; for Selectivity index LD50 (V79)/IC50 (IPC5202): V79 vs IPC5202
Procedure: (§2) Cytotoxicity was assessed on the mammalian cell lines HepG2-A16 (human hepatoma) and V79 (Chinese hamster lung), using a MTT based assay, as previously described. […] V79 and HepG2 cell lines were incubated for 24 and 48 h, respectively (media changed at 24 h intervals). Absorbance was read at 570 nm on a multi-mode microplate reader (Triad, Dynex Technologies), to produce a log dose-dependence curve. The LD50 value for each compound was estimated by non-linear interpolation of the dose-dependence curve (GraphPad Software).

[6] = tested on: HepG2-A16 (human hepatoma) cells; details: for LD50 HepG2: human, 48 h; for Selectivity index LD50 (HepG2)/IC50 (3D7): HepG2 vs 3D7; for Selectivity index LD50 (HepG2)/IC50 (Dd2): HepG2 vs Dd2; for Selectivity index LD50 (HepG2)/IC50 (IPC4912): HepG2 vs IPC4912; for Selectivity index LD50 (HepG2)/IC50 (IPC5202): HepG2 vs IPC5202
Procedure: as §2

[7] = Solubility remark in the IC50 table; type: physicochemical; parameters: key: ?: Low solubility; details: symbol printed in the IC50 cells
Source text: Supplement 12936_2018_2281_MOESM1_ESM.docx, table 1: Table 1: Antiplasmodial activity in vitro (IC50) against resistant and sensitive P. falciparum strains. | column: P. falciparum IC50 ± SD (nM)

[8] = tested on: Plasmodium berghei NK65; assay: Peters' 4-day suppressive test in Swiss albino mice; type: in vivo; details: 50 mg/kg/day oral for 4 days; for inhibition in vivo at 50 mg/kg/day: Plasmodium berghei
Procedure: In vivo tests were performed following the Guidelines for Ethical Conduct in The Care and Use of Animals of the Federal University of Rio Grande do Norte—Brazil (CEUA/UFRN/46/2013). Evaluation of anti-malarial activity in vivo was carried out using the Peters’ 4-day suppressive test, with modifications, as previously described. Swiss albino mice were infected with Plasmodium berghei NK65 and randomly allocated to groups of five animals. Animals were treated with 50 mg/kg/day of each of the tested compounds (dissolved in PBS containing 1% DMSO), administrated orally, for four consecutive days. The control group was treated with a solution of PBS/1% DMSO. On days 5 (D5), 7 (D7) and 10 (D10) after parasite inoculation, tail blood smears were Giemsa-stained and examined microscopically to estimate parasitaemia. Acute toxicity testing was carried out to determine adverse effects due to compounds (including weight loss, hair appearance, skin wounds and behavioural changes), and recorded daily.

[9] = tested on: P. falciparum IPC5202 ring-stage parasites; assay: Ring-stage survival assay (RSA), IPC5202; type: cell-based, Plasmodium falciparum; details: 6 h pulse, 10 x IC50 (DHA 700 nM), ART-R strain IPC5202
Procedure: (§3) Ring-stage survival assays (RSA) were carried out as described in [21], with modifications. Parasite cultures were synchronized once, with 5% sorbitol, and in the next reinvasion cycle, twice, with a 6 h interval. […] Then, plates were centrifuged and supernatant replaced by drug-free culture media. After additional incubation during 66 h for ring-stage, and 42 h for mature-stage, susceptibility was assessed microscopically on Giemsa-stained thin blood smears by estimating the percentage of viable parasites that developed into a second generation of rings or trophozoites.

[10] = tested on: P. falciparum 3D7 ring-stage parasites; assay: Ring-stage survival assay (RSA), 3D7; type: cell-based, Plasmodium falciparum; details: 6 h pulse, 10 x IC50 (DHA 700 nM), ART-S strain 3D7
Procedure: as §3

[11] = Plasmodium falciparum, DD2, strain Dd2
[12] = Plasmodium falciparum, 3D7, strain 3D7

SMILES | Resistance Index RIa = IC50 (Dd2)/IC50 (3D7) [1] | IC50 [1, 11] [nM] | Resistance Index RIc = IC50 (IPC4912)/IC50 (3D7) [2] | IC50 [2] [nM] | IC50 [3, 12] [nM] | Resistance Index RIb = IC50 (IPC5202)/IC50 (3D7) [4] | IC50 [4] [nM] | LD50 V79 [5] [mM] | LD50 HepG2 [6] [mM] | Selectivity index LD50 (V79)/IC50 (3D7) [5] | Selectivity index LD50 (V79)/IC50 (Dd2) [5] | Selectivity index LD50 (V79)/IC50 (IPC4912) [5] | Selectivity index LD50 (V79)/IC50 (IPC5202) [5] | Selectivity index LD50 (HepG2)/IC50 (3D7) [6] | Selectivity index LD50 (HepG2)/IC50 (Dd2) [6] | Selectivity index LD50 (HepG2)/IC50 (IPC4912) [6] | Selectivity index LD50 (HepG2)/IC50 (IPC5202) [6] | IC50 ([3]; strain 3D7) [nM] | also measured
C[C@H]1[C@H](OC(=O)CCC(=O)O)O[C@@H]2O[C@@]3(C)CC[C@H]4[C@H](C)CC[C@@H]1[C@@]24OO3 [ATN, artesunate, reference compound] | 0.9 | 4.6 ± 1.4 | 0.76 | 3.9 ± 1.2 | 5.1 ± 0.1 | 0.67 | 3.4 ± 0.1 |  |  |  |  |  |  |  |  |  |  |  | 
O=S1(=O)N=C(Cl)c2ccccc21 [LC60, 3-chloro-1,2-benzisothiazole-1,1-dioxide] |  | > 10000 |  |  | > 10000 |  |  | > 1 | 1.0 |  |  |  |  |  |  |  |  |  | 
NCCCCNC(=O)C1CCC2(CC1)OOC1(O2)C2CC3CC(C2)CC1C3 (stereo not drawn) [MIS15] |  |  |  |  |  |  |  | > 1 | 1.0 |  |  |  |  |  |  |  |  |  | solubility remark (no IC50 obtained) [7]: ?
C[C@@H]1CC[C@H]2[C@@H](C)C(=O)O[C@@H]3O[C@@]4(C)CC[C@@H]1[C@]32OO4 [ART, artemisinin, reference compound] |  | 2.5 ± 0.1 | 3.32 | 13.3 ± 2.2 | 4 ± 0.1 | 8.32 | 33.3 ± 8 | > 0.4 | 0.4 | 104844.6 | 168515.4 | 31295.7 | 12499.5 | 104844.6 | 168515.4 | 31295.7 | 12499.5 | 3.97 ± 0.08 | IC50 ([1]; strain Dd2): 2.47 ± 0.1 nM
c1ccc(N2N=NNC23OOC2(O3)C3CC4CC(C3)CC2C4)cc1 (stereo not drawn) [LC28] | 0.3 | 1130 ± 188 |  |  | 3660 ± 1490 |  |  | > 1 | 1.0 | 273.3 | 887.3 |  |  | 273.3 | 887.3 |  |  |  | 
C1C2CC3CC1CC(C2)C31OOC2(CCC(Nc3nnn[nH]3)CC2)OO1 (stereo not drawn) [LC163] |  |  | 0.30 | 18.6 ± 16.9 | < 100 | 1.13 | 71.1 ± 1.1 | > 1 | 1.0 | 15873.0 | 22988.5 | 53763.4 | 14064.7 | 15873.0 | 22988.5 | 53763.4 | 14064.7 | 63 ± 0.7 | in vivo outcome against P. berghei in words ([8]; followed to day 10): recrudescence also occurred on day 10; inhibition in vivo at 50 mg/kg/day ([8]; 120 h, mice, day 5, vs control group, read-out: % inhibition of parasite growth, Day 5 (converted)): 100%; inhibition in vivo at 50 mg/kg/day ([8]; 168 h, mice, day 7, vs control group, read-out: % inhibition of parasite growth, Day 7 (converted)): 100%; inhibition in vivo at 50 mg/kg/day ([8]; 240 h, mice, day 10, vs control group, read-out: % inhibition of parasite growth, Day 10 (converted)): 96.5%; Mean parasitaemia ± SD, Day 5 ([8]; mice, day 5): 0%; Mean parasitaemia ± SD, Day 7 ([8]; mice, day 7): 0%; Mean parasitaemia ± SD, Day 10 ([8]; mice, day 10): 0.2 ± 0.13%; Ring-stage survival rate (RSA), percentage of viable parasites, IPC5202 [9]: 2.0 ± 1.9% and > 1%; Ring-stage survival rate (RSA), percentage of viable parasites, 3D7 [10]: 6.9 ± 1.6% and > 1%
